Data on 4 compounds can be found in patent US20260226086A1, “COMPOUNDS AND COMPOSITIONS AS STAT3 DEGRADERS AND USES THEREOF” (REGENTS OF THE UNIVERSITY OF MICHIGAN, priority 2023, published 2026).

Common to all, as to format: cell-based
One assay relates to SUP-M2 cells. The experiment in a line: CellTiter-Glo 2.0 cell viability assay, SUP-M2. Conditions: SUP-M2, 96 h, 4 days. The procedure: (§1) For example, cell viability may be determined by CellTiter-Glo 2.0 Cell Viability Assay. In a typical procedure, cells seeded at certain amounts of cells (e.g., 1000 cells) per well are incubated with serially diluted compounds for certain period (e.g., 4 days) under certain conditions (e.g., at 37° C. with 5% CO2). At the end of treatment, CellTiter-Glo 2.0 is added to the wells and luminescence is acquired on TECAN SPARK plate reader. Untreated cells are used as control, Data points are fit with an equation (e.g., a four-parameter equation) to generate a concentration-response curve. IC50 values are calculated using a nonlinear regression analysis of the mean±SD from triplicate.
(§2) SU-DHL-1 and SUP-M2 cell viability was determined by CellTiter-Glo 2.0 Cell Viability Assay (Promega). SU-DHL-1 cell line was purchased from ATCC (Manassas, VA) and SUP-M2 (ACC-509) was purchased from DSMZ (Germany). RPMI 1640 medium and fetal bovine serum (FBS) were purchased from Gibco/Thermo Fisher Scientific. In a typical procedure, cells seeded at 1000 cells per well in 384-well white plates (Corning) were incubated with serially diluted compounds for 4 days at 37° C. with 5% C02. At the end of treatment, CellTiter-Glo 2.0 was added to the wells and luminescence was acquired on TECAN SPARK plate reader. Untreated cells were used as control. Data points were fit with a four-parameter equation to generate a concentration-response curve. IC50 values were calculated using a nonlinear regression analysis of the mean±SD from triplicate.
(In general: In ATP-based viability assays light output follows the ATP content of the culture.)

For another assay, the target named is T1, STAT3 (Homo sapiens, UniProt P40763).
T1 construct: This cell line is a clone created by using CRISPR-Cas9 to fuse HiBiT to the 3′ end of STAT3 in HeLa cells; host or cells: STAT3-HiBiT KI HeLa cell line (CRISPR-Cas9 knock-in clone)
T1 sequence (P40763 whole entry): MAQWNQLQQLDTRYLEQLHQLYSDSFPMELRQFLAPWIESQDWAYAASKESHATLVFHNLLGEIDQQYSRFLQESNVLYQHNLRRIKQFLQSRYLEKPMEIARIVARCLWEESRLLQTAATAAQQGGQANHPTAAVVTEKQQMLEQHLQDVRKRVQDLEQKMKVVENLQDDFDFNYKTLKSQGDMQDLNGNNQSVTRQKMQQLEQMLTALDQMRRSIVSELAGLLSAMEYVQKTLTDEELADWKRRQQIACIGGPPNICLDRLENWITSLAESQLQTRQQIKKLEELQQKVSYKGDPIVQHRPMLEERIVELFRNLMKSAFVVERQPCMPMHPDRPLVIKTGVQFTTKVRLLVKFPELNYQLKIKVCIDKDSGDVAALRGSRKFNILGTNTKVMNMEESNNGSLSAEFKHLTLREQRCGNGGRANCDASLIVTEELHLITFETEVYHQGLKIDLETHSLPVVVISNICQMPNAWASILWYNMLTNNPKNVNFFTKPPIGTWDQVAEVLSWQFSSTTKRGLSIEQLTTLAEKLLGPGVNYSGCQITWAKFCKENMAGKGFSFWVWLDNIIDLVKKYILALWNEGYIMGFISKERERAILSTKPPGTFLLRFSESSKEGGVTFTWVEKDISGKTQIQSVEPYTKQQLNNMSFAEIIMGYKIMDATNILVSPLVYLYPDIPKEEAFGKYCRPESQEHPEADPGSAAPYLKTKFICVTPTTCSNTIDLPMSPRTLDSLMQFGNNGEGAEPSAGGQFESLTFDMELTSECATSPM
Put plainly: HiBiT assay, STAT3 degradation in STAT3-HiBiT KI HeLa cells. To be noted: 24 h; for DC50: read-out: STAT3 Degradation (HeLa 24 h HiBit) DC50. As to the method:
STAT3 degradation may be determined by HiBiT assay. STAT3-HiBiT KI HeLa cell line, which is a clone created by using CRTISPR-Cas9 to fuse HiBiT to the 3′ end of STAT3 in HeLa cells, may be used for this assay. In a typical procedure, cells seeded at certain amounts of cells (e.g., 20000 cells) per well are incubated with serially diluted compounds for certain period of time (e.g., 24 hours) under certain conditions (e.g., at 37° C. with 5% CO2). At the end of treatment, Nano-Glo HiBiT Lytic Detection reagents is added to the wells and luminescence is acquired on TECAN SPARK plate reader. Untreated cells are used as control. Data points are fit with a four-parameter equation to generate a concentration-response curve. IC50 values are calculated using a nonlinear regression analysis of the mean±SD from triplicate.
STAT3-HiBiT KI HeLa cell line was purchased from Promega. This cell line is a clone created by using CRISPR-Cas9 to fuse HiBiT to the 3′ end of STAT3 in HeLa cells. DMEM medium and FBS were purchased from Gibco/Thermo Fisher Scientific. STAT3 degradation was determined based on quantification of luminescent signal using Nano-Glo HiBiT Lytic Detection System. In a typical procedure, cells seeded at 20000 cells per well in 96-well white plates (Corning) were incubated with serially diluted compounds for 24 hours at 37° C. with 5% CO2. At the end of treatment, Nano-Glo HiBiT Lytic Detection reagents was added to the wells and luminescence was acquired on TECAN SPARK plate reader. Untreated cells were used as control. Data points were fit with a four-parameter equation to generate a concentration-response curve. IC50 values were calculated using a nonlinear regression analysis of the mean±SD from triplicate.
On the technique in general: With HiBiT, luminescence reflects the tagged protein that the partner subunit can reach.

The test system of the next assay is SU-DHL-1 cells. The experiment in a line: CellTiter-Glo 2.0 cell viability assay, SU-DHL-1. Conditions: Homo sapiens, 96 h, 4 days. As to the method:
as §1, §2

In general, IC50 refers to the concentration that gives 50% inhibition. Higher therefore signals lower potency. The term Dmax denotes the greatest extent of degradation seen. The low end stands for shallow degradation, the high end for deep degradation. Broadly, the DC50 is the concentration at which degradation of the target reaches its halfway point. Turning to `CC(=O)N1CC[C@H]2CC[C@@H](C(=O)N[C@@H](CCC(N)=O)COc3cccc(CCCc4cn([C@H](C(=O)N5C[C@H](O)C[C@H]5C(=O)N[C@@H](C)c5ccc(-c6scnc6C)cc5)C5CCN(C6CCOCC6)CC5)nn4)c3Cl)N2C(=O)[C@@H](NC(=O)c2cc3cc(C(=O)P(=O)(O)O)ccc3[nH]2)C1` [Compound 25, (2-(((5S,8S,10aR)-3-acetyl-8-(((S)-5-amino-1-(2-chloro-3-(3-(1-((S)-2-((2S,4R)-4-hydroxy-2-(((S)-1-(4-(4-methylthiazol-5-yl)phenyl)ethyl)carbamoyl)pyrrolidin-1-yl)-2-oxo-1-(1-(tetrahydro-2H-pyran-4-yl)piperidin-4-yl)ethyl)-1H-1,2,3-triazol-4-yl)propyl)phenoxy)-5-oxopentan-2-yl)carbamoyl)-6-oxodecahydropyrrolo [1,2-a][1,5]diazocin-5-yl)carbamoyl)-1H-indole-5-carbonyl)phosphonic acid], the IC50 with SUP-M2 cells and with SU-DHL-1 cells was 10 to 100 nM in each case. For the same compound, the greatest degradation seen (Dmax) at 1 µM at STAT3 (@1 μM) is 60 to 80%. The DC50 at STAT3 lay in the range of 100 to 1000 nM.
Turning to `Cc1ncsc1-c1ccc([C@H](C)NC(=O)[C@@H]2C[C@@H](O)CN2C(=O)[C@@H](NC(=O)CCCCCCCC(=O)N2CC[C@H]3CC[C@@H](C(=O)N[C@@H](CCC(N)=O)C(=O)NC(c4ccccc4)c4ccccc4)N3C(=O)[C@@H](NC(=O)c3cc4cc(C(=O)P(=O)(O)O)ccc4[nH]3)C2)C(C)(C)C)cc1` [Compound 52, (2-(((5S,8S,10aR)-8-(((S)-5-amino-1-(benzhydrylamino)-1,5-dioxopentan-2-yl)carbamoyl)-3-(9-(((S)-1-((2S,4R)-4-hydroxy-2-(((S)-1-(4-(4-methylthiazol-5-yl)phenyl)ethyl)carbamoyl)pyrrolidin-1-yl)-3,3-dimethyl-1-oxobutan-2-yl)amino)-9-oxononanoyl)-6-oxodecahydropyrrolo[1,2-a][1,5]diazocin-5-yl)carbamoyl)-1H-indole-5-carbonyl)phosphonic acid], the IC50 in the assay with SUP-M2 cells and in the assay on SU-DHL-1 cells was 100 to 1000 nM throughout. Besides, the DC50 at STAT3 lay in the range of 100 to 1000 nM.
Regarding `Cc1ncsc1-c1ccc([C@H](C)NC(=O)[C@@H]2C[C@@H](O)CN2C(=O)[C@@H](NC(=O)CCC(=O)N2CC[C@H]3CC[C@@H](C(=O)N[C@@H](CCC(N)=O)C(=O)NC(c4ccccc4)c4ccccc4)N3C(=O)[C@@H](NC(=O)c3cc4cc(C(=O)P(=O)(O)O)ccc4[nH]3)C2)C(C)(C)C)cc1` [Compound 47, (2-(((5S,8S,10aR)-8-(((S)-5-amino-1-(benzhydrylamino)-1,5-dioxopentan-2-yl)carbamoyl)-3-(4-(((S)-1-((2S,4R)-4-hydroxy-2-(((S)-1-(4-(4-methylthiazol-5-yl)phenyl)ethyl)carbamoyl)pyrrolidin-1-yl)-3,3-dimethyl-1-oxobutan-2-yl)amino)-4-oxobutanoyl)-6-oxodecahydropyrrolo[1,2-a][1,5]diazocin-5-yl)carbamoyl)-1H-indole-5-carbonyl)phosphonic acid], the IC50 in the assay with SUP-M2 cells and in the assay on SU-DHL-1 cells was 100 to 1000 nM throughout. In addition, the DC50 on STAT3 is 100 to 1000 nM.
`Cc1ncsc1-c1ccc([C@H](C)NC(=O)[C@@H]2C[C@@H](O)CN2C(=O)[C@@H](NC(=O)CC(=O)N2CC[C@H]3CC[C@@H](C(=O)N[C@@H](CCC(N)=O)C(=O)NC(c4ccccc4)c4ccccc4)N3C(=O)[C@@H](NC(=O)c3cc4cc(C(=O)P(=O)(O)O)ccc4[nH]3)C2)C(C)(C)C)cc1` [Compound 46, (2-(((5S,8S,10aR)-8-(((S)-5-amino-1-(benzhydrylamino)-1,5-dioxopentan-2-yl)carbamoyl)-3-(3-(((S)-1-((2S,4R)-4-hydroxy-2-(((S)-1-(4-(4-methylthiazol-5-yl)phenyl)ethyl)carbamoyl)pyrrolidin-1-yl)-3,3-dimethyl-1-oxobutan-2-yl)amino)-3-oxopropanoyl)-6-oxodecahydropyrrolo[1,2-a][1,5]diazocin-5-yl)carbamoyl)-1H-indole-5-carbonyl)phosphonic acid]: the half-maximal inhibitory concentration (IC50) in the assay with SUP-M2 cells and in the assay on SU-DHL-1 cells was above 1000 nM in each case. In addition, at STAT3, the DC50 is above 1000 nM.
